We go through 2 compounds from US11203772B2, “Chemoenzymatic synthesis of structurally homogeneous ultra-low molecular weight heparins” (The University of North Carolina at Chapel Hill, priority 2010, dated 2021).

A word on the IC50: it is the point on the concentration scale where inhibition reaches its midpoint. The term Kd denotes the free concentration of one partner at which half of the binding sites on the other are occupied at equilibrium, for simple one-to-one binding. The low end stands for a tighter complex, the high end for a looser complex.

The test system of data set [1] is factor Xa. Kind of data set: Anticoagulant activity in vivo: anti-Xa activity of rabbit plasma samples. The settings on record: rabbits, subcutaneous, 120 μg/kg; compared with one another.
For data set [2], the system named is bovine factor Xa. Kind of data set: Inhibition of factor Xa activity (anti-Xa, chromogenic substrate S-2765, with AT). The data set is classed as biochemical. The settings on record: with human AT, read-out: IC50 value, in vitro anti-Xa activity. Here is the method:
Inhibition effect of the ULMW heparin compounds on the activity of factor Xa. Assays were based on a previously published method (Zhang et al., 2001; Duncan et al., 2004). Briefly, bovine factor Xa (Sigma, St. Louis, Mo., United States of America) was diluted to 5 U/ml with PBS containing 1 mg/ml BSA. Human AT (Cutter Biological) was diluted with PBS containing 1 mg/ml BSA to give a stock solution at the concentration of 27 μM. The chromogenic substrates, S-2765 was from Diapharma and made up at 1 mM in water. The oligosaccharide (ARIXTRA® synthetic ULMW heparin pentasaccharide, ULMW heparin construct 1 and 2) was dissolved in PBS at various concentrations (0.5 to 50 nM). The reaction mixture, which included 25 μl of AT stock solution and 25 μl of the solution containing the sample, was incubated at 37° C. for 2 min. Factor Xa (25 μl) was added. After incubating 37° C. for 4 min, 25 μl of S-2765 was added. The absorbance of the reaction mixture was measured at 405 nm continuously for 10 min. The absorbance values were plotted against the reaction time. The initial reaction rates as a function of concentration were used to calculate the IC50 values.
The activity of Xa was determined by the rate of the increase of the absorbance at 405 nm. The activity without drugs was defined as 100%. […]

Data set [3] has as its system factor Xa. The settings on record: rabbit, in vivo, sc, 120 ug/kg.
Data set [4] has as its target T1, antithrombin (AT) (Homo sapiens, UniProt P01008).
T1 construct: purchased Cutter Biological
Put plainly: Binding to antithrombin (AT) by affinity coelectrophoresis. The settings on record: affinity co-electrophoresis, 35S-labeled compound. Here is the method:
The dissociation constant (Kd) of each sample and AT was determined using affinity co-electrophoresis (Lee & Lander, 1991). Approximately 4000-5000 cpm of antithrombin-binding ^35S-labeled ULMW heparin construct 1 or 2 was loaded per lane with zones of AT at concentrations 0, 4, 8, 16, 32, 60, 120, 240 and 500 nM. The gel was performed at 400 mA for 2 hours, dried and analyzed on a Phospholmager Storm 860 (Amersham Biosciences, Uppsala, Sweden). The retardation coefficient was calculated at R=(M0-M)/M0, where M0 is the mobility of the polysaccharide through the zone without AT, and M is the mobility of the sample through each separation zone. The retardation coefficient was then plotted against the retardation coefficient divided by its respective concentration of AT. The slope of the line represents −1/Kd.

T1 sequence (P01008 33-464): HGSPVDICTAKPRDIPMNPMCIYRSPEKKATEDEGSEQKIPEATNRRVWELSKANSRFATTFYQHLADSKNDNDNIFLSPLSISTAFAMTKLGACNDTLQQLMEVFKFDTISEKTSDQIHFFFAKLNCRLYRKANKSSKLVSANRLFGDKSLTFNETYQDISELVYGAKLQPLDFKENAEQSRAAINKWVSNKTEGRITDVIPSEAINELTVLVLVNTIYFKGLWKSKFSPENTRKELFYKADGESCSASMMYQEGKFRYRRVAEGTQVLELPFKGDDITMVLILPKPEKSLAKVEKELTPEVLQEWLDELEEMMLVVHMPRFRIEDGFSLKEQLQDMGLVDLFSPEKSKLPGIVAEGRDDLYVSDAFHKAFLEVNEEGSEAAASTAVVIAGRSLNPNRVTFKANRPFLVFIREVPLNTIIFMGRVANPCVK

With `CO[C@H]1O[C@H](COS(=O)(=O)O)[C@@H](O[C@@H]2O[C@@H](C(=O)O)[C@@H](O[C@H]3O[C@H](COS(=O)(=O)O)[C@@H](O[C@@H]4O[C@H](C(=O)O)[C@@H](O[C@H]5O[C@H](COS(=O)(=O)O)[C@@H](O)[C@H](O)[C@H]5NS(=O)(=O)O)[C@H](O)[C@H]4O)[C@H](OS(=O)(=O)O)[C@H]3NS(=O)(=O)O)[C@H](O)[C@H]2OS(=O)(=O)O)[C@H](O)[C@H]1NS(=O)(=O)O` [ARIXTRA®, fondaparinux sodium, reference compound], the “pharmacodynamic (PD) profiles” value in data set [1] is “very similar”. For the same compound, the IC50 in data set [2] came to 3 nM. Moreover, the “area under the curve (AUC), anti-Xa activity of plasma samples” value in data set [3] was determined as 457.

Take `O=C(O)C1OC(OC2C(COS(=O)(=O)O)OC(OC3C(C(=O)O)OC(OC4C(COS(=O)(=O)O)OC(OC5C(C(=O)O)OC(OC6C(CO)OC(CO)C6O)C(O)C5O)C(NS(=O)(=O)O)C4O)C(OS(=O)(=O)O)C3O)C(NS(=O)(=O)O)C2OS(=O)(=O)O)C(O)C(O)C1OC1OC(COS(=O)(=O)O)C(O)C(O)C1NS(=O)(=O)O` (stereo not shown) [construct 2]: binding in data set [4] was put at a Kd of 9.1 ± 0.2 nM. Moreover, the “pharmacodynamic (PD) profiles” value in data set [1] was “very similar”. In data set [2], the IC50 is 3.6 nM. In data set [3], the “area under the curve (AUC), anti-Xa activity of plasma samples” value is 802.
